According to patent publication US5091397A (priority 1988, dated 1992):
Counter-ions that a name gives are not always drawn. Like-named read-outs stand apart in the source and are kept apart here.

Columns and labels:
muscarinic receptors [1] = format: binding, Hooded Lister rats; details: displacement of muscarinic antagonist 3H-QNB (0.27nM), rat cerebral cortex, 37° C., 30 min
muscarinic receptors [2] = experiment: Radio ligand binding: displacement of the muscarinic agonist 3H-Oxotremorine-M (3H-OXO-M) from cerebral cortex membranes; parameters: species or system Hooded Lister rats; details: displacement of muscarinic agonist 3H-OXO-M (2nM), rat cerebral cortex, 2mM magnesium chloride, 37° C., 30 min

**Q.** `Nc1noc(C[C@@H]2CN3CC[C@@H]2C3)n1` (relative stereo) [Example E1, (±) exo 3-[(3-Amino-1,2,4-oxadiazol-5-yl)methyl]-1-azabicyclo[2.2.1]heptane] was tested. Which IC50 (muscarinic receptors [1]) did it give?
**A.** 7500 nM

**Q.** And the IC50 (muscarinic receptors [2])?
**A.** 36.5 nM

**Q.** For `Cc1nc(C[C@@H]2CN3CC[C@@H]2C3)no1` (relative stereo) [Example E16, (±) exo 3-[(5-Methyl-1,2,4-oxadiazol-3-yl)methyl)-1-azabicyclo[2.2.1]heptane hydrochloride salt], which IC50 (muscarinic receptors [2]) is on record?
**A.** 1000 nM

**Q.** `Nc1noc(CC23CCN(CC2)C3)n1` [Example E13, 4-[(3-Amino-1,2,4-oxadiazol-5-yl)methyl]-1-azabicyclo[2.2.1]heptane] was tested. Which IC50 (muscarinic receptors [1]) did it give?
**A.** 85000 nM

**Q.** What about the IC50 (muscarinic receptors [2]) of the same molecule?
**A.** 118 nM

**Q.** How did the IC50 (muscarinic receptors [1]) turn out when `c1coc(CC23CCCN(CC2)C3)c1` (racemic) [Example E12, (±) 5-[(Fur-2-yl)methyl-1-azabicyclo[3.2.1]octane oxalate salt] was run?
**A.** 4000 nM

**Q.** What about the IC50 (muscarinic receptors [2]) of the same molecule?
**A.** 660 nM

**Q.** With `c1coc(C[C@H]2CN3CC[C@@H]2C3)n1` (relative stereo) [Example E7, (±) endo 3-(1,3-Oxazol-2-yl)methyl]-1-azabicyclo[2.2.1]heptane oxalate salt] as the molecule, how does the IC50 (muscarinic receptors [1]) read?
**A.** 8000 nM

**Q.** And the IC50 (muscarinic receptors [2])?
**A.** 42 nM

**Q.** What does the source list for `Cc1noc(CC2CN3CCC2CC3)n1` (racemic) [Example E2, (±) 3-[(3-Methyl-1,2,4-oxadiazol-5-yl)methyl]-1-azabicyclo[2.2.2]octane hydrochloride salt]?
**A.** IC50 (muscarinic receptors [1]): 13000 nM; IC50 (muscarinic receptors [2]): 1050 nM

**Q.** Which IC50 (muscarinic receptors [1]) does the source give for `c1coc(C[C@@H]2CN3CC[C@@H]2C3)n1` (relative stereo) [Example E10, (±) exo 3-(1,3-Oxazo1-2-yl)methyl-1-azabicyclo [2.2.1]heptane oxalate salt] here?
**A.** 5600 nM

**Q.** What about the IC50 (muscarinic receptors [2]) of the same molecule?
**A.** 38 nM

**Q.** How did the IC50 (muscarinic receptors [1]) turn out when `c1coc(CC23CCN(CC2)C3)n1` [Example E14, 4-[(1,3-Oxazol-2-yl)methyl]-1-azabicyclo[2.2.1]heptane oxalate salt] was run?
**A.** 74000 nM

**Q.** And the IC50 (muscarinic receptors [2])?
**A.** 410 nM

**Q.** What does the source list for `Nc1noc(C[C@H]2CN3CC[C@@H]2C3)n1` (relative stereo) [Example E5, (±) endo 3-[(3-Amino-1,2,4-oxadiazol-5-yl)methyl]-1-azabicyclo[2.2.1]heptane]?
**A.** IC50 (muscarinic receptors [1]): 21000 nM; IC50 (muscarinic receptors [2]): 32 nM

**Q.** Which results are given for `c1coc(CC2CN3CCC2CC3)n1` (racemic) [Example E3, (±) 3-(1,3-Oxazol-2-yl)methyl]-1-azabicyclo[2.2.2]octane oxalate salt]?
**A.** IC50 (muscarinic receptors [1]): 7000 nM; IC50 (muscarinic receptors [2]): 755 nM

**Q.** Which IC50 (muscarinic receptors [1]) does the source give for `Cn1nnc(C[C@H]2CN3CC[C@@H]2C3)n1` (relative stereo) [Example E11, (±) endo 3-[(2-Methyltetrazol-5-yl)methyl]-1-azabicyclo[2.2.11]heptane oxalate salt] here?
**A.** 8000 nM

**Q.** What about the IC50 (muscarinic receptors [2]) of the same molecule?
**A.** 340 nM

**Q.** For `Cc1nc(C[C@H]2CN3CC[C@@H]2C3)no1` (relative stereo) [Example E15, (±) endo 3-[(5-Methyl-1,2,4-oxadiazol-3-yl)methyl-1-azabicyclo[2.2.11]heptane hydrochloride salt], which IC50 (muscarinic receptors [1]) is on record?
**A.** 30500 nM

**Q.** And the IC50 (muscarinic receptors [2])?
**A.** 950 nM

**Q.** How did the IC50 (muscarinic receptors [1]) turn out when `Nc1noc(CC23CCCN(CC2)C3)n1` (racemic) [Example E4, (±) 5-[(3-Amino-1,2,4-oxadiazol-5-yl)methyl]-1-azabicyclo[3.2.1]octane] was run?
**A.** 6700 nM

**Q.** And the IC50 (muscarinic receptors [2])?
**A.** 580 nM

**Q.** For `Cc1noc(C[C@H]2CN3CC[C@@H]2C3)n1` (relative stereo) [Example E6, (±) endo 3-(3-Methyl-1,2.4-oxadiazol-5-yl)methyl-1-azabicyclo[2.2.1]heptane oxalate salt], which IC50 (muscarinic receptors [1]) is on record?
**A.** 10200 nM

**Q.** And the IC50 (muscarinic receptors [2])?
**A.** 150 nM

**Q.** Which results are given for `Nc1noc(C[C@@H]2C[C@@H]3CCN(C2)C3)n1` (relative stereo) [Example E9, (±) endo 3-[(3-Amino-1,2,4-oxadiazol-5-yl)methyl]-1-azabicyclo[3.2.1]octane]?
**A.** IC50 (muscarinic receptors [1]): 4600 nM; IC50 (muscarinic receptors [2]): 925 nM

**Q.** With `c1ncc(C[C@H]2CN3CC[C@@H]2C3)o1` (relative stereo) [Example E8, (±) endo 3-(1,3-Oxazol-5-yl)methyl-1-azabicyclo[2.2.1]heptane hydrochloride salt] as the molecule, how does the IC50 (muscarinic receptors [1]) read?
**A.** 38000 nM

**Q.** What about the IC50 (muscarinic receptors [2]) of the same molecule?
**A.** 625 nM

**Q.** With `c1csc(CC2CN3CCC2CC3)n1` (racemic) [Example E17, (±) 3-((1,3-Thiazol-2-yl)methyl)-1-azabicyclo[2.2.2]octane oxalate salt] as the molecule, how does the IC50 (muscarinic receptors [2]) read?
**A.** 875 nM
